# Laboratory results taken from patent publication US9067911B2, “Piperidine derivatives” (Hoffmann-La Roche Inc., priority 2009, dated 2015).
# Structures can show the parent of a compound that is named as a salt.
# Target: T1, mGlyT-1b (Mus musculus, UniProt P28571)
# T1 construct: host or cells: Flp-in-CHO
# T1 sequence (P28571 1-651 isoform P28571-2): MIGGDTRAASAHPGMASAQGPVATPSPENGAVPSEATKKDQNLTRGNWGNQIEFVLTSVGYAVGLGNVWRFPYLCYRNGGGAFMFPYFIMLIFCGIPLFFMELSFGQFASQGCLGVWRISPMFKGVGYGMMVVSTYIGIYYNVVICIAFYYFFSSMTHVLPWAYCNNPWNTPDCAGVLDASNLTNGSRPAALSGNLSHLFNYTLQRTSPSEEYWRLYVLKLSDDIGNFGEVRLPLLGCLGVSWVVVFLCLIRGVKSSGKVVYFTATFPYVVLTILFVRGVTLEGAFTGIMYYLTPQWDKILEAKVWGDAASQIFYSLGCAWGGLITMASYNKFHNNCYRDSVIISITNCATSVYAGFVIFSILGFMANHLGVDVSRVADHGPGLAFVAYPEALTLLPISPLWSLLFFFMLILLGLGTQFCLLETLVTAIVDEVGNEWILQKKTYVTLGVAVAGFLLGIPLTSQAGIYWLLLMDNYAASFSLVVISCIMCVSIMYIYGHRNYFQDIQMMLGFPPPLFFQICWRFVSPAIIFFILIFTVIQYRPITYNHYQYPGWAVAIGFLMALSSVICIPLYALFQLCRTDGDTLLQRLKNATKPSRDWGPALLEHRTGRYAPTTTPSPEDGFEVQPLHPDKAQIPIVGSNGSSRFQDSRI
# Test: Glycine uptake inhibition assay (mGlyT-1b)
# Format: cell-based
# Conditions: [3H]-glycine uptake, Flp-in-CHO cells stably transfected with mGlyT1b cDNA, 20 min preincubation at 22° C.
# Description: Nutrient mixture F-12 (Gibco Life-technologies), fetal bovine serum (FBS) 5%, (Gibco life technologies), Penicillin/Streptomycin 1% (Gibco life technologies), Hygromycin 0.6 mg/ml (Gibco life technologies), Glutamine 1 mM Gibco life technologies)
# 150 mM NaCl, 10 mM Hepes-Tris, pH 7.4, 1 mM CaCl2, 2.5 mM KCl, 2.5 mM MgSO4, 10 mM (+) D-glucose.
# Flp-in™-CHO (Invitrogen Cat n° R758-07) cells stably transfected with mGlyT1b cDNA.
# Glycine Uptake Inhibition Assay (mGlyT-1b)
# On day 1 mammalian cells, (Flp-in™-CHO), transfected with mGlyT-1b cDNA, were plated at the density of 40,000 cells/well in complete F-12 medium, without hygromycin in 96-well culture plates. On day 2, the medium was aspirated and the cells were washed twice with uptake buffer (UB). The cells were then incubated for 20 min at 22° C. with either (i) no potential competitor, (ii) 10 mM non-radioactive glycine, (iii) a concentration of a potential inhibitor. A range of concentrations of the potential inhibitor was used to generate data for calculating the concentration of inhibitor resulting in 50% of the effect (e.g. IC50, the concentration of the competitor inhibiting glycine uptake of 50%). A solution was then immediately added containing [^3H]-glycine 60 nM (11-16 Ci/mmol) and 25 μM non-radioactive glycine. The plates were incubated with gentle shaking and the reaction was stopped by aspiration of the mixture and washing (three times) with ice-cold UB. The cells were lysed with scintillation liquid, shaken 3 hours and the radioactivity in the cells was counted using a scintillation counter.
row,SMILES,IC50
1,"COc1cc(C(F)(F)F)cc(SC)c1C(=O)N[C@@]1(c2ccccc2)C[C@H](C)CN(C)C1 (mixture of isomers) [Example 85, N-((3R,5SR)-1,5-Dimethyl-3-phenyl-piperidin-3-yl)-2-methoxy-6-methylsulfanyl-4-trifluoromethyl-benzamide hydrochloride]",31.3 nM
2,"CCc1cc(C(F)(F)F)ccc1C(=O)NC1(c2ccccc2)CCCN(C)C1 (racemic) [Example 4, rac-2-Ethyl-N-(1-methyl-3-phenyl-piperidin-3-yl)-4-trifluoromethyl-benzamide]",26.4 nM
3,"CN1CCCC(NC(=O)c2c(F)cc(C(F)(F)F)cc2C(F)(F)F)(c2ccccc2)C1 (racemic) [Example 5, rac-2-Fluoro-N-(1-methyl-3-phenyl-piperidin-3-yl)-4,6-bis-trifluoromethyl-benzamide]",107 nM
4,"COc1cc(C(F)(F)F)cc(Br)c1C(=O)NC1(c2ccccc2)CCCN(C)C1 (racemic) [Example 7, rac-2-Bromo-6-methoxy-N-(1-methyl-3-phenyl-piperidin-3-yl)-4-trifluoromethyl-benzamide]",85.4 nM
5,"COc1cc(C(F)(F)F)cc(SC)c1C(=O)NC1(c2ccccc2)CCCN(C)C1C (racemic) [Example 11, rac-N-(1,2-Dimethyl-3-phenyl-piperidin-3-yl)-2-methoxy-6-methylsulfanyl-4-trifluoromethyl-benzamide]",20.2 nM
6,"CN1CCCC(NC(=O)c2ccc(C(F)(F)F)cc2C2CC2)(c2ccccc2)C1 (racemic) [Example 13, rac-2-Cyclopropyl-N-(1-methyl-3-phenyl-piperidin-3-yl)-4-trifluoromethyl-benzamide]",13 nM
7,"COc1cc(C(F)(F)F)cc(C(F)(F)F)c1C(=O)NC1(c2ccccc2)CCCN(C)C1 (racemic) [Example 16, rac-2-Methoxy-N-(1-methyl-3-phenyl-piperidin-3-yl)-4,6-bis-trifluoromethyl-benzamide]",138 nM
8,"COc1cc(C(F)(F)F)cc(SC)c1C(=O)NC1(c2ccccc2)CCCN(C)C1 (racemic) [Example 18, rac-2-Methoxy-N-(1-methyl-3-phenyl-piperidin-3-yl)-6-methylsulfanyl-4-trifluoromethyl-benzamide]",24.4 nM
9,"CSc1cc(C(F)(F)F)ccc1C(=O)NC1(c2ccccc2)CCCN(C)C1 (racemic) [Example 19, rac-N-(1-Methyl-3-phenyl-piperidin-3-yl)-2-methylsulfanyl-4-trifluoromethyl-benzamide]",67.2 nM
10,"CCc1cc(C(F)(F)F)cc(C(F)(F)F)c1C(=O)NC1(c2ccccc2)CCCN(C)C1 (racemic) [Example 25, rac-2-Ethyl-N-(1-methyl-3-phenyl-piperidin-3-yl)-4,6-bis-trifluoromethyl-benzamide]",126 nM
11,"COc1cc(C(F)(F)F)cc(C(F)(F)F)c1C(=O)NC1(c2ccc(F)cc2)CCCN(C)C1 (racemic) [Example 26, rac-N-[3-(4-Fluoro-phenyl)-1-methyl-piperidin-3-yl]-2-methoxy-4,6-bis-trifluoromethyl-benzamide]",59.3 nM
12,"COc1cc(C(F)(F)F)cc(SC)c1C(=O)NC1(c2ccc(F)cc2)CCCN(C)C1 (racemic) [Example 27, rac-N-[3-(4-Fluoro-phenyl)-1-methyl-piperidin-3-yl]-2-methoxy-6-methylsulfanyl-4-trifluoromethyl-benzamide]",26.2 nM
13,"COc1cc(C(F)(F)F)cc(SC)c1C(=O)NC1(c2ccc(Cl)cc2)CCCN(C)C1 (racemic) [Example 28, rac-N-[3-(4-Chloro-phenyl)-1-methyl-piperidin-3-yl]-2-methoxy-6-methylsulfanyl-4-trifluoromethyl-benzamide]",27.7 nM
14,"CN1CCCC(NC(=O)c2ccc(C(F)(F)F)cc2OC(F)F)(c2ccccc2)C1 (racemic) [Example 39, rac-2-Difluoromethoxy-N-(1-methyl-3-phenyl-piperidin-3-yl)-4-trifluoromethyl-benzamide]",184 nM
